Results taken from PubChem BioAssay (NCI).
Values joined by “and” are separate entries in the source; they are usually repeats but may differ in a detail not shown here. Identical values can stand only once.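 At the GI50, growth is halved. TGI denotes the concentration required for complete inhibition of growth.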

What was measured:
Assay in all cases: NCI tumour cell line growth inhibition, 384-well format
K-562 leukemia = test system: K-562 leukemia
TK-10 renal = test system: TK-10 renal
EKVX NSCLC = test system: EKVX NSCLC
MDA-MB-435 melanoma = test system: MDA-MB-435 melanoma
SK-MEL-2 melanoma = test system: SK-MEL-2 melanoma
A498 renal = test system: A498 renal
PC-3 prostate = test system: PC-3 prostate
NCI-H322M lung = test system: NCI-H322M lung
MALME-3M melanoma = test system: MALME-3M melanoma
ACHN renal = test system: ACHN renal
SW-620 colon = test system: SW-620 colon
RXF 393 renal = test system: RXF 393 renal
T-47D breast = test system: T-47D breast
IGROV1 ovarian = test system: IGROV1 ovarian
OVCAR-8 ovarian = test system: OVCAR-8 ovarian
HOP-62 NSCLC = test system: HOP-62 NSCLC
NCI-H522 lung = test system: NCI-H522 lung
SK-OV-3 ovarian = test system: SK-OV-3 ovarian
MDA-MB-231 breast = test system: MDA-MB-231 breast
BT-549 breast = test system: BT-549 breast
NCI-H23 lung = test system: NCI-H23 lung
SNB-75 CNS = test system: SNB-75 CNS
NCI-H460 NSCLC = test system: NCI-H460 NSCLC
HT29 colon = test system: HT29 colon
UACC-257 melanoma = test system: UACC-257 melanoma
OVCAR-3 ovarian = test system: OVCAR-3 ovarian
DU-145 prostate = test system: DU-145 prostate
U251 glioblastoma = test system: U251 glioblastoma
MCF7 breast = test system: MCF7 breast
SF-268 CNS = test system: SF-268 CNS
SN12C renal = test system: SN12C renal
SF-295 CNS = test system: SF-295 CNS
HCT-116 colon = test system: HCT-116 colon
HCT-15 colon = test system: HCT-15 colon
OVCAR-5 ovarian = test system: OVCAR-5 ovarian
SF-539 CNS = test system: SF-539 CNS
CAKI-1 renal = test system: CAKI-1 renal
HL-60(TB) leukemia = test system: HL-60(TB) leukemia
UACC-62 melanoma = test system: UACC-62 melanoma
786-0 renal = test system: 786-0 renal
A549 NSCLC = test system: A549 NSCLC
KM12 colon = test system: KM12 colon
MDA-MB-468 breast = test system: MDA-MB-468 breast
HS 578T breast = test system: HS 578T breast
NCI-H226 lung = test system: NCI-H226 lung
UO-31 renal = test system: UO-31 renal
OVCAR-4 ovarian = test system: OVCAR-4 ovarian
SK-MEL-5 melanoma = test system: SK-MEL-5 melanoma
SK-MEL-28 melanoma = test system: SK-MEL-28 melanoma
M14 melanoma = test system: M14 melanoma
HOP-92 NSCLC = test system: HOP-92 NSCLC
COLO 205 colon = test system: COLO 205 colon
SNB-19 CNS = test system: SNB-19 CNS

COc1ccc(C2=N[C@@H](c3ccc(Cl)cc3)[C@@H](c3ccc(Cl)cc3)N2C(=O)N2CCNC(=O)C2)c(OC(C)C)c1
GI50 (K-562 leukemia): 11.4 µM and 4.93 µM and 2.55 µM
TGI (K-562 leukemia): 23.9 µM and 20.3 µM and 17 µM
GI50 (TK-10 renal): 15.1 µM and 13.5 µM and 11.3 µM
TGI (TK-10 renal): 28.5 µM and 26.4 µM and 23.5 µM
GI50 (EKVX NSCLC): 15 µM and 15.3 µM and 14.6 µM
TGI (EKVX NSCLC): 28.3 µM and 28.7 µM and 27.8 µM
GI50 (MDA-MB-435 melanoma): 13.8 µM and 16.4 µM and 15.8 µM
TGI (MDA-MB-435 melanoma): 26.8 µM and 30.1 µM and 29.4 µM
GI50 (SK-MEL-2 melanoma): 18.7 µM and 18.1 µM and 14.5 µM
TGI (SK-MEL-2 melanoma): 32.7 µM and 32.1 µM and 27.7 µM
TGI (A498 renal): 23.1 µM and 13.1 µM and 13.5 µM
GI50 (PC-3 prostate): 12.5 µM and 13 µM and 12.6 µM
TGI (PC-3 prostate): 25.1 µM and 25.8 µM and 25.2 µM
GI50 (NCI-H322M lung): 19.3 µM and 17.7 µM and 13.7 µM
TGI (NCI-H322M lung): 33.6 µM and 31.6 µM and 26.7 µM
GI50 (MALME-3M melanoma): 8.12 µM and 2.75 µM and 5.41 µM
TGI (MALME-3M melanoma): 20.3 µM and 19.3 µM and 19.7 µM
TGI (ACHN renal): 24.2 µM and 11.4 µM and 11.2 µM
GI50 (SW-620 colon): 13.1 µM and 11 µM and 3.58 µM
TGI (SW-620 colon): 26 µM and 23.3 µM and 19.4 µM
TGI (RXF 393 renal): 24.8 µM and 16.3 µM and 14.9 µM
GI50 (T-47D breast): 17 µM and 14.7 µM and 13.8 µM
TGI (T-47D breast): 30.7 µM and 28 µM and 26.7 µM
GI50 (IGROV1 ovarian): 13.5 µM and 10.9 µM and 7.76 µM
TGI (IGROV1 ovarian): 26.5 µM and 23 µM and 21 µM
GI50 (OVCAR-8 ovarian): 15.6 µM and 11.9 µM and 10.5 µM
TGI (OVCAR-8 ovarian): 29.1 µM and 24.4 µM and 22.3 µM
GI50 (HOP-62 NSCLC): 15.6 µM and 2.36 µM and 5.46 µM
TGI (HOP-62 NSCLC): 29.1 µM and 19.6 µM and 20.5 µM
GI50 (NCI-H522 lung): 14.1 µM and 15 µM and 14.8 µM
TGI (NCI-H522 lung): 27.1 µM and 28.3 µM and 28 µM
GI50 (SK-OV-3 ovarian): 19.7 µM and 16 µM and 12.9 µM
TGI (SK-OV-3 ovarian): 34 µM and 29.6 µM and 25.7 µM
GI50 (MDA-MB-231 breast): 17 µM and 14.1 µM and 12.9 µM
TGI (MDA-MB-231 breast): 30.8 µM and 27.1 µM and 25.6 µM
GI50 (BT-549 breast): 16.6 µM and 16.9 µM
TGI (BT-549 breast): 30.3 µM and 30.2 µM and 30.6 µM
GI50 (NCI-H23 lung): 14.5 µM and 15.1 µM
TGI (NCI-H23 lung): 27.6 µM and 28.5 µM
GI50 (SNB-75 CNS): 13.3 µM and 11.9 µM and 11.6 µM
TGI (SNB-75 CNS): 26.1 µM and 24.2 µM and 23.9 µM
GI50 (NCI-H460 NSCLC): 15.3 µM and 10.4 µM and 8.98 µM
TGI (NCI-H460 NSCLC): 28.9 µM and 22.5 µM and 21.3 µM
GI50 (HT29 colon): 11.8 µM and 13.4 µM and 10.5 µM
TGI (HT29 colon): 24.2 µM and 26.3 µM and 22.3 µM
GI50 (UACC-257 melanoma): 15.5 µM and 5.8 µM and 8.65 µM
TGI (UACC-257 melanoma): 28.9 µM and 18 µM and 20.8 µM
GI50 (OVCAR-3 ovarian): 12.8 µM and 12 µM and 12.1 µM
TGI (OVCAR-3 ovarian): 25.5 µM and 24.6 µM
GI50 (DU-145 prostate): 15.2 µM and 15.7 µM
TGI (DU-145 prostate): 28.6 µM and 29.3 µM and 28.7 µM
GI50 (U251 glioblastoma): 14.7 µM and 13.7 µM and 10.9 µM
TGI (U251 glioblastoma): 28 µM and 26.7 µM and 22.9 µM
GI50 (MCF7 breast): 3.43 µM and 1.73 µM and 0.718 µM
TGI (MCF7 breast): 16.8 µM and 8.38 µM and 8.52 µM
GI50 (SF-268 CNS): 16.7 µM and 13.4 µM and 10.7 µM
TGI (SF-268 CNS): 30.4 µM and 26.4 µM and 22.6 µM
GI50 (SN12C renal): 15.5 µM and 17.2 µM and 16.1 µM
TGI (SN12C renal): 28.9 µM and 31 µM and 29.6 µM
GI50 (SF-295 CNS): 15.3 µM and 14.5 µM and 12.9 µM
TGI (SF-295 CNS): 28.7 µM and 27.7 µM and 25.7 µM
TGI (HCT-116 colon): 24 µM and 14.5 µM and 12.8 µM
GI50 (HCT-15 colon): 16 µM and 16.1 µM and 14 µM
TGI (HCT-15 colon): 29.7 µM and 30.1 µM and 27.1 µM
GI50 (OVCAR-5 ovarian): 16.9 µM and 17.6 µM and 16.7 µM
TGI (OVCAR-5 ovarian): 30.6 µM and 31.8 µM and 30.5 µM
GI50 (SF-539 CNS): 16.1 µM and 13.7 µM and 10.6 µM
TGI (SF-539 CNS): 29.6 µM and 26.8 µM and 22.4 µM
TGI (CAKI-1 renal): 21.1 µM and 11.9 µM and 12.4 µM
GI50 (HL-60(TB) leukemia): 2.99 µM and 3.06 µM and 3.55 µM
TGI (HL-60(TB) leukemia): 12.9 µM and 15.7 µM and 15.8 µM
TGI (UACC-62 melanoma): 21.8 µM and 8.99 µM and 11.3 µM
GI50 ([…]-0 renal): 14.7 µM and 14 µM and 11.2 µM
TGI (786-0 renal): 27.9 µM and 27.1 µM and 23.3 µM
GI50 (A549 NSCLC): 14.6 µM and 2.28 µM and 2.23 µM
TGI (A549 NSCLC): 27.8 µM and 14.7 µM and 13.8 µM
TGI (KM12 colon): 27.8 µM and 12.7 µM and 12.3 µM
GI50 (MDA-MB-468 breast): 12.4 µM and 11 µM and 11.5 µM
TGI (MDA-MB-468 breast): 24.9 µM and 23 µM and 23.7 µM
GI50 (HS 578T breast): 13.4 µM and 12.8 µM and 12.2 µM
TGI (HS 578T breast): 26.2 µM and 25.5 µM and 24.7 µM
TGI (NCI-H226 lung): 23.7 µM and 2.47 µM and 3.4 µM
GI50 (UO-31 renal): 11.2 µM and 4.63 µM and 5.1 µM
TGI (UO-31 renal): 23.3 µM and 15.8 µM and 16 µM
GI50 (OVCAR-4 ovarian): 14 µM and 14.2 µM and 13.8 µM
TGI (OVCAR-4 ovarian): 27 µM and 27.4 µM and 26.8 µM
GI50 (SK-MEL-5 melanoma): 14.3 µM and 8.52 µM and 7.04 µM
TGI (SK-MEL-5 melanoma): 27.5 µM and 20.6 µM and 20 µM
GI50 (SK-MEL-28 melanoma): 15.6 µM and 18.7 µM and 18 µM
TGI (SK-MEL-28 melanoma): 29 µM and 32.9 µM and 32 µM
GI50 (M14 melanoma): 13.1 µM and 10 µM and 11.1 µM
TGI (M14 melanoma): 25.8 µM and 21.6 µM and 23.1 µM
GI50 (HOP-92 NSCLC): 15.2 µM and 13.4 µM and 11.8 µM
TGI (HOP-92 NSCLC): 28.5 µM and 26.3 µM and 24.1 µM
GI50 (COLO 205 colon): 15.9 µM and 16.8 µM and 14.9 µM
TGI (COLO 205 colon): 29.5 µM and 30.7 µM and 28.3 µM
GI50 (SNB-19 CNS): 14.3 µM and 14.6 µM
TGI (SNB-19 CNS): 27.4 µM and 27.9 µM
